Data: paper PMC10780766, “From Bench to Bedside: Patient-Oriented Radiopharmaceutical Development in Nuclear Medicine Based on the Example of [^89Zr]Zr-PSMA-DFO” (Molecules, 2023)
Where two headings read alike, the source gives them in different places.

Legend:
[1] = Storage of iron-free precursor in aqueous solution, then labeling, cell binding and internalization; assay type: physicochemical; settings: storage at 5 °C in an aqueous solution for 6 months
Source text: Such synthesis modules have been specifically designed to enable the versatile and efficient routine production of various radiopharmaceuticals while adhering to GMP requirements. The concept of disposable cassettes pursued in this approach allows the user to label different radionuclides on the same synthesis device without the risk of cross-contamination. The disposable cassettes include all necessary vessels, reagents, and purification columns. The automated process concludes with a final sterile filtration, including a filter integrity test. Iron removal should therefore take place before the actual labeling process. We wanted to verify whether it is possible to establish a stock of an iron-free PSMA-DFO precursor, stored in an aqueous solution at 4 °C in the refrigerator, and to determine its shelf life. This was done by investigating whether the iron-free precursor can be labeled with zirconium-89 after several months of storage without compromising the yield, cell binding, and internalization.

[2] = test system: PSMA binding sites (PSMA-positive LNCaP cell lines); set-up: method as in PMID 34370181; settings: LNCaP cells; cited from earlier work
[3] = test system: PSMA (prostate-specific membrane antigen) on prostate cancer cells; set-up: method as in PMID 34370181; settings: cited from earlier work
[4] = test system: PSMA (prostate-specific membrane antigen) on prostate cancer cells; set-up: method as in PMID 34370181; settings: cited from earlier work; remark: listed apart in the source
LNCaP tumor xenograft = test system: LNCaP tumor xenograft; set-up: method as in PMID 34370181; settings: LNCaP tumor xenografts, n = 5, cited from earlier work
LNCaP tumors = test system: LNCaP tumors; set-up: method as in PMID 34370181; settings: cited from earlier work
[5] = set-up: method as in PMID 34370181; settings: up to 7 days at 37 °C; cited from earlier work
PSMA-positive lesions = test system: PSMA-positive lesions; set-up: method as in PMID 34326129; settings: cited from earlier work

| Compound | Kd [2] [nM] | Bmax [2] [fmol/10^6 Cells] | Specific binding as a percentage of the total cellular activity ([3]; 0.5 h) [%] | Specific binding as a percentage of the total cellular activity ([3]; 1 h) [%] | Specific binding as a percentage of the total cellular activity ([3]; 2 h) [%] | Specific binding as a percentage of the total cellular activity ([3]; 3 h) [%] | Specific binding as a percentage of the total cellular activity ([3]; 5 h) [%] | Specific internalization as a percentage of the total cellular activity ([4]; 0.5 h) [%] | Specific internalization as a percentage of the total cellular activity ([4]; 1 h) [%] | Specific internalization as a percentage of the total cellular activity ([4]; 2 h) [%] | Specific internalization as a percentage of the total cellular activity ([4]; 3 h) [%] | Specific internalization as a percentage of the total cellular activity ([4]; 5 h) [%] | tumor/blood ratio (LNCaP tumor xenograft; 4 h after i.v. injection) | tumor/muscle ratio (LNCaP tumor xenograft; 4 h after i.v. injection) | also measured |
| --- | --- | --- | --- | --- | --- | --- | --- | --- | --- | --- | --- | --- | --- | --- | --- |
| CC(=O)N(O)CCCCCNC(=O)CCC(=O)N(O)CCCCCNC(=O)CCC(=O)N(O)CCCCCNC(=O)CCC(=O)NCC1CCC(C(=O)NC(Cc2ccc3ccccc3c2)C(=O)NCCCCC(NC(=O)NC(CCC(=O)O)C(=O)O)C(=O)O)CC1 (stereo not shown) [N-sucDFO-PSMA] | – | – | – | – | – | – | – | – | – | – | – | – | – | – | Chemical reactivity, specific binding and internalization after storage [1]: remained unaffected |
| COc1nc(F)ccc1C(=O)NCCCCC(NC(=O)NC(CCC(=O)O)C(=O)O)C(=O)O (stereo not shown) [[^18F]F-JK-PSMA 7] | 5.07 ± 0.45 | – | – | – | – | – | – | – | – | – | – | – | – | – | – |
| COc1nc([18F])ccc1C(=O)NCCCCC(NC(=O)NC(CCC(=O)O)C(=O)O)C(=O)O (stereo not shown) [[^18F]F-JK-PSMA 7] | – | 2702 ± 61 | 23.8 ± 0.6 | 32.6 ± 0.4 | 38.8 ± 1.3 | 45.2 ± 1.9 | 45.8 ± 0.4 | 4.7 ± 0.4 | 11.1 ± 0.7 | 17.2 ± 1.3 | 20.8 ± 0.6 | 21.8 ± 0.3 | 175 ± 30 | 114 ± 14 | – |
| O=C([O-])CN(CCN(CC(=O)[O-])Cc1cc(CCC(=O)NCCCCCC(=O)NCCCC[C@H](NC(=O)N[C@@H](CCC(=O)O)C(=O)O)C(=O)O)ccc1[O-])Cc1cc(CCC(=O)O)ccc1[O-].[68Ga+3].[OH3+] [[^68Ga]Ga-PSMA 11] | 5.15 ± 0.6 | 1746 ± 53 | 27.7 ± 0.7 | 35.3 ± 3.1 | 42.0 ± 1.2 | 46.3 ± 2.1 | 48.3 ± 1.2 | 8.0 ± 0.4 | 14.0 ± 1.9 | 20.3 ± 1.5 | 23.3 ± 0.8 | 27.4 ± 1.6 | 112 ± 57 | 58 ± 36 | – |
| CC(=O)N([O-])CCCCCNC(=O)CCC(=O)N([O-])CCCCCNC(=O)CCC(=O)N([O-])CCCCCNC(=O)CCC(=O)NCC1CCC(C(=O)NC(Cc2ccc3ccccc3c2)C(=O)NCCCCC(NC(=O)NC(CCC(=O)O)C(=O)O)C(=O)O)CC1.[89Zr+4] (stereo not shown) [[^89Zr]Zr-PSMA-DFO] | 4.97 ± 0.57 | 1428 ± 42 | 29.1 ± 2.1 | 38.5 ± 2.3 | 46.5 ± 1.3 | 48.8 ± 1.0 | 49.4 ± 1.3 | 9.5 ± 0.6 | 15.3 ± 1.0 | 22.3 ± 1.0 | 24.4 ± 0.6 | 30.4 ± 1.3 | – | – | tumor/blood ratio (LNCaP tumor xenograft; 24 h after i.v. injection): 309 ± 89; tumor/muscle ratio (LNCaP tumor xenograft; 24 h after i.v. injection): 450 ± 38; Tumor visualization at later time points (LNCaP tumors; PET scans up to 48 h after injection): clear tumor visualization; Radioactive background radiation in the kidneys and bladder (LNCaP tumors; after 48 h, mice with LNCaP tumor xenografts): minimal; Ability to visualize tumors compared with [68Ga]Ga-PSMA-11 or [18F]F-JK-PSMA-7 (LNCaP tumors; early time points (1 h after injection)): similar; Stability in human serum [5]: very high stability; Stability in phosphate-buffered saline (PBS) [5]: very high stability; Detected lesions whose validity was supported (histology, follow-up after radiation therapy, additional imaging) (PSMA-positive lesions): 14 out of 15; Level of radioactivity in the 15 lesions (SUVmax) versus the original PET scans (PSMA-positive lesions): significantly higher; Number of PSMA-positive lesions detected (PSMA-positive lesions; in 8 out of 14 patients): 15; Patients in whom PSMA-positive lesions were detected (PSMA-positive lesions; patients with BCR and initially negative PET scans using the usual tracers): 8 out of 14 |
| [^177Lu]Lu-PSMA 617 | 5.81 ± 0.71 | 2021 ± 66 | 16.0 ± 0.2 | 19.7 ± 1.1 | 30.4 ± 1.0 | 35.5 ± 1.0 | 40.7 ± 2.4 | 4.1 ± 0.1 | 6.7 ± 0.1 | 12.8 ± 1.3 | 16.9 ± 0.2 | 22.9 ± 0.9 | – | – | – |
